Experimental data as given in US8143290B2, “Chemical compounds 572” (AstraZeneca AB, priority 2006, dated 2012).

Target: T1, recombinant human GR (Homo sapiens, UniProt P04150)
T1 construct: purchased Panvera/Invitrogen P2812 (kit P2893)
T1 sequence (P04150 1-777): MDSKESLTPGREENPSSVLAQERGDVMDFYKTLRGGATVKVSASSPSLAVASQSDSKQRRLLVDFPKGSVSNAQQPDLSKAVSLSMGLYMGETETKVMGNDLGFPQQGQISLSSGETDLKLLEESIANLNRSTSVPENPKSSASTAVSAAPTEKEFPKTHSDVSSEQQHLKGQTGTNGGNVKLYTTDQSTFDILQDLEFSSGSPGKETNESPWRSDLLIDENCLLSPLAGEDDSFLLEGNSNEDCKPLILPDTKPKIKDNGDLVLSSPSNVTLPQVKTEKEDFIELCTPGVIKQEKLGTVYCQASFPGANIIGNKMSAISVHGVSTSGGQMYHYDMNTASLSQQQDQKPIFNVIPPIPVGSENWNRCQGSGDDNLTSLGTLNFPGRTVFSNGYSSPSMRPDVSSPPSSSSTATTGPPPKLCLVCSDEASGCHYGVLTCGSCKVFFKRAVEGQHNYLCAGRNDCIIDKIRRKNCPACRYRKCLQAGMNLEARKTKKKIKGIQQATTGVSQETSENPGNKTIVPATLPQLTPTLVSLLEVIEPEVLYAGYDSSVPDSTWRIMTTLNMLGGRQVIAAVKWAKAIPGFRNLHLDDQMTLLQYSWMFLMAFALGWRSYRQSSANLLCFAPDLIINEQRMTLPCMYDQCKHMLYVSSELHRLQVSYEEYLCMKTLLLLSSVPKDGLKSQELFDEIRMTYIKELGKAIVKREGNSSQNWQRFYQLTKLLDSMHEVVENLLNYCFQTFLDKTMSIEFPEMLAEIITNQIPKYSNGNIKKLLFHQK
Assay: Human Glucocorticoid Receptor (GR) Assay, fluorescence polarization
Type: binding
Conditions: GS Red tracer, incubated 2 h at r.t., XLfit model 205, read-out: GRhuFL_FP_v2 Mean IC50
Procedure, shortened: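 After 2 h dark incubation at r.t., polarization reported displacement of the GS Red tracer from recombinant GR, in buffer with phosphate, molybdate, EDTA, DTT and Stabilizing Peptide. Controls: dexamethasone (100%) and DMSO (0%).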

IC50 [nM] | SMILES
5.4 | COc1ccc(F)cc1[C@@H](Oc1ccc2c(cnn2-c2ccc(F)cc2)c1)[C@H](C)NC(=O)C(C)(F)F [Example 235, 2,2-difluoro-N-[(1R,2S)-1-(5-fluoro-2-methoxy-phenyl)-1-[1-(4-fluorophenyl)indazol-5-yl]oxy-propan-2-yl]propanamide]
7.2 | COc1c(C)cc([C@@H](Oc2ccc3c(cnn3-c3ccc(F)cc3)c2)[C@H](C)NC(=O)C(C)(F)F)cc1C [Example 236, 2,2-difluoro-N-[(1R,2S)-1-[1-(4-fluorophenyl)indazol-5-yl]oxy-1-(4-methoxy-3,5-dimethyl-phenyl)propan-2-yl]propanamide]
8.4 | C[C@H](NC(=O)C(C)(F)F)[C@H](Oc1ccc2c(cnn2-c2ccc(F)cc2)c1)c1ccc(Cl)cc1 [Example 237, N-[(1R,2S)-1-(4-chlorophenyl)-1-[1-(4-fluorophenyl)indazol-5-yl]oxy-propan-2-yl]-2,2-difluoro-propanamide]
6.8 | C[C@H](NC(=O)C(C)(F)F)[C@H](Oc1ccc2c(cnn2-c2ccc(F)cc2)c1)c1cc(F)cc(Cl)c1 [Example 238, N-[(1R,2S)-1-(3-chloro-5-fluoro-phenyl)-1-[1-(4-fluorophenyl)indazol-5-yl]oxy-propan-2-yl]-2,2-difluoro-propanamide]
9 | Cc1cccc([C@@H](Oc2ccc3c(cnn3-c3ccc(F)cc3)c2)[C@H](C)NC(=O)C(C)(F)F)c1 [Example 239, 2,2-difluoro-N-[(1R,2S)-1-[1-(4-fluorophenyl)indazol-5-yl]oxy-1-(3-methylphenyl)propan-2-yl]propanamide]
4.9 | C[C@H](NC(=O)C(C)(C)F)[C@H](Oc1ccc2c(cnn2-c2ccc(F)cc2)c1)c1ccc(F)c(F)c1 [Example 241, N-[(1R,2S)-1-(3,4-difluorophenyl)-1-[1-(4-fluorophenyl)indazol-5-yl]oxy-propan-2-yl]-2-fluoro-2-methyl-propanamide]
5.5 | Cc1ccc([C@@H](Oc2ccc3c(cnn3-c3ccc(F)cc3)c2)[C@H](C)NC(=O)C(C)(C)F)cc1F [Example 242, 2-fluoro-N-[(1R,2S)-1-(3-fluoro-4-methyl-phenyl)-1-[1-(4-fluorophenyl)indazol-5-yl]oxy-propan-2-yl]-2-methyl-propanamide]
5.5 | C[C@H](NC(=O)C(C)(C)F)[C@H](Oc1ccc2c(cnn2-c2ccc(F)cc2)c1)c1cccc(F)c1 [Example 243, 2-fluoro-N-[(1R,2S)-1-(3-fluorophenyl)-1-[1-(4-fluorophenyl)indazol-5-yl]oxy-propan-2-yl]-2-methyl-propanamide]
4.4 | C[C@H](NC(=O)C(C)(C)F)[C@H](Oc1ccc2c(cnn2-c2ccc(F)cc2)c1)c1cccc(Cl)c1 [Example 247, N-[(1R,2S)-1-(3-chlorophenyl)-1-[1-(4-fluorophenyl)indazol-5-yl]oxy-propan-2-yl]-2-fluoro-2-methyl-propanamide]
4.8 | Cc1cc(F)ccc1[C@@H](Oc1ccc2c(cnn2-c2ccc(F)cc2)c1)[C@H](C)NC(=O)C(C)(C)F [Example 248, 2-fluoro-N-[(1R,2S)-1-(4-fluoro-2-methyl-phenyl)-1-[1-(4-fluorophenyl)indazol-5-yl]oxy-propan-2-yl]-2-methyl-propanamide]
5 | Cc1ccc(F)cc1[C@@H](Oc1ccc2c(cnn2-c2ccc(F)cc2)c1)[C@H](C)NC(=O)C(C)(C)F [Example 249, 2-fluoro-N-[(1R,2S)-1-(5-fluoro-2-methyl-phenyl)-1-[1-(4-fluorophenyl)indazol-5-yl]oxy-propan-2-yl]-2-methyl-propanamide]
5.3 | C[C@H](NC(=O)C(C)(C)CO)[C@H](Oc1ccc2c(cnn2-c2ccc(F)cc2)c1)c1ccc(F)c(F)c1 [Example 251, N-[(1R,2S)-1-(3,4-difluorophenyl)-1-[1-(4-fluorophenyl)indazol-5-yl]oxy-propan-2-yl]-3-hydroxy-2,2-dimethyl-propanamide]

Continued, compound first:

SMILES | IC50 [nM]
Cc1ccc([C@@H](Oc2ccc3c(cnn3-c3ccc(F)cc3)c2)[C@H](C)NC(=O)C(C)(C)F)cc1C [Example 240, N-[(1R,2S)-1-(3,4-dimethylphenyl)-1-[1-(4-fluorophenyl)indazol-5-yl]oxy-propan-2-yl]-2-fluoro-2-methyl-propanamide] | 5.9
Cc1ccc(C)c([C@@H](Oc2ccc3c(cnn3-c3ccc(F)cc3)c2)[C@H](C)NC(=O)C(C)(C)F)c1 [Example 244, N-[(1R,2S)-1-(2,5-dimethylphenyl)-1-[1-(4-fluorophenyl)indazol-5-yl]oxy-propan-2-yl]-2-fluoro-2-methyl-propanamide] | 8.3
Cc1ccc([C@@H](Oc2ccc3c(cnn3-c3ccc(F)cc3)c2)[C@H](C)NC(=O)C(C)(C)F)c(C)c1 [Example 245, N-[(1R,2S)-1-(2,4-dimethylphenyl)-1-[1-(4-fluorophenyl)indazol-5-yl]oxy-propan-2-yl]-2-fluoro-2-methyl-propanamide] | 5.5
COc1ccc([C@@H](Oc2ccc3c(cnn3-c3ccc(F)cc3)c2)[C@H](C)NC(=O)C(C)(C)F)cc1F [Example 246, 2-fluoro-N-[(1R,2S)-1-(3-fluoro-4-methoxy-phenyl)-1-[1-(4-fluorophenyl)indazol-5-yl]oxy-propan-2-yl]-2-methyl-propanamide] | 6
COc1ccc(F)cc1[C@@H](Oc1ccc2c(cnn2-c2ccc(F)cc2)c1)[C@H](C)NC(=O)C(C)(C)F [Example 250, 2-fluoro-N-[(1R,2S)-1-(5-fluoro-2-methoxy-phenyl)-1-[1-(4-fluorophenyl)indazol-5-yl]oxy-propan-2-yl]-2-methyl-propanamide] | 6.9
Cc1ccc([C@@H](Oc2ccc3c(cnn3-c3ccc(F)cc3)c2)[C@H](C)NC(=O)C(C)(C)CO)cc1F [Example 252, N-[(1R,2S)-1-(3-fluoro-4-methyl-phenyl)-1-[1-(4-fluorophenyl)indazol-5-yl]oxy-propan-2-yl]-3-hydroxy-2,2-dimethyl-propanamide] | 4.7
C[C@H](NC(=O)C(C)(C)CO)[C@H](Oc1ccc2c(cnn2-c2ccc(F)cc2)c1)c1cccc(F)c1 [Example 253, N-[(1R,2S)-1-(3-fluorophenyl)-1-[1-(4-fluorophenyl)indazol-5-yl]oxy-propan-2-yl]-3-hydroxy-2,2-dimethyl-propanamide] | 7.5
Cc1ccc(C)c([C@@H](Oc2ccc3c(cnn3-c3ccc(F)cc3)c2)[C@H](C)NC(=O)C(C)(C)CO)c1 [Example 254, N-[(1R,2S)-1-(2,5-dimethylphenyl)-1-[1-(4-fluorophenyl)indazol-5-yl]oxy-propan-2-yl]-3-hydroxy-2,2-dimethyl-propanamide] | 8.5
C[C@H](NC(=O)C(C)(C)CO)[C@H](Oc1ccc2c(cnn2-c2ccc(F)cc2)c1)c1cccc(Cl)c1 [Example 255, N-[(1R,2S)-1-(3-chlorophenyl)-1-[1-(4-fluorophenyl)indazol-5-yl]oxy-propan-2-yl]-3-hydroxy-2,2-dimethyl-propanamide] | 5.1
Cc1cc(F)ccc1[C@@H](Oc1ccc2c(cnn2-c2ccc(F)cc2)c1)[C@H](C)NC(=O)C(C)(C)CO [Example 256, N-[(1R,2S)-1-(4-fluoro-2-methyl-phenyl)-1-[1-(4-fluorophenyl)indazol-5-yl]oxy-propan-2-yl]-3-hydroxy-2,2-dimethyl-propanamide] | 5.3
